Results reported in patent US20250313563A1, “GLYCOGEN SYNTHASE KINASE 3 INHIBITORS AND USES THEREOF” (The Broad Institute, Inc., priority 2022, published 2025).
Where two headings read alike, the source gives them in different places.

Key:
[1] = target: GSK3α (GST-full length GSK3α) (Homo sapiens (Human), UniProt P49840); experiment: GSK3α TR-FRET kinase assay; type: biochemical
Outline: (§1)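 IC50 came from the normalized 665/615 nm TR-FRET ratio plotted against log compound concentration. The Tb-labelled pSer641 antibody and streptavidin-d2 detected phosphorylation of biotinylated S645-primed glycogen synthase peptide (200 nM) by 1 nM full-length GST-kinase. ATP was 4 μM for α, 2 μM for β, or 1 mM.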

[2] = target: GSK3b (GST-full length GSK3b) (Homo sapiens (Human), UniProt P49841); experiment: GSK3b TR-FRET kinase assay; type: biochemical
Outline: as §1

[3] = 1 nM GSK3α, 4 μM ATP, 30 minute preincubation, Table 16, read-out: GSK3-A TR-FRET BIOCHEMICAL (TR-FRET), IC50
[4] = 1 nM GSK3b, 2 μM ATP, 30 minute preincubation, Table 16, read-out: GSK3-B TR-FRET BIOCHEMICAL (TR-FRET), IC50
[5] = 1 nM GSK3α, 4 μM ATP, 30 minute preincubation, Table 16, read-out: GSK3-A TR-FRET BIOCHEMICAL (TR-FRET)
[6] = 1 nM GSK3α, 4 μM ATP, 30 minute preincubation, read-out: GSK3-A TR-FRET BIOCHEMICAL (TR-FRET), IC50
[7] = GSK3-A (TR-FRET 1 mM ATP), GMean, IC50, 1 mM ATP, geometric mean
[8] = 1 nM GSK3b, 2 μM ATP, 30 minute preincubation, Table 16, read-out: GSK3-B TR-FRET BIOCHEMICAL (TR-FRET)
[9] = 1 nM GSK3b, 2 μM ATP, 30 minute preincubation, read-out: GSK3-B TR-FRET BIOCHEMICAL (TR-FRET), IC50
[10] = GSK3-B (TR-FRET 1 mM ATP), GMean, IC50, 1 mM ATP, geometric mean
[11] = read-out: GSK3-A (TR-FRET 1 mM ATP), GMean, IC50, 1 mM ATP, geometric mean
[12] = read-out: GSK3-B (TR-FRET 1 mM ATP), GMean, IC50, 1 mM ATP, geometric mean
[13] = 1 nM GSK3α, 4 μM ATP, 30 minute preincubation, geometric mean, read-out: GSK3-A TR-FRET BIOCHEMICAL (TR-FRET), GMean, IC50
[14] = 1 nM GSK3b, 2 μM ATP, 30 minute preincubation, geometric mean, read-out: GSK3-B TR-FRET BIOCHEMICAL (TR-FRET), GMean, IC50

Chain of GSK3b (GST-full length GSK3b) (P49841 whole entry): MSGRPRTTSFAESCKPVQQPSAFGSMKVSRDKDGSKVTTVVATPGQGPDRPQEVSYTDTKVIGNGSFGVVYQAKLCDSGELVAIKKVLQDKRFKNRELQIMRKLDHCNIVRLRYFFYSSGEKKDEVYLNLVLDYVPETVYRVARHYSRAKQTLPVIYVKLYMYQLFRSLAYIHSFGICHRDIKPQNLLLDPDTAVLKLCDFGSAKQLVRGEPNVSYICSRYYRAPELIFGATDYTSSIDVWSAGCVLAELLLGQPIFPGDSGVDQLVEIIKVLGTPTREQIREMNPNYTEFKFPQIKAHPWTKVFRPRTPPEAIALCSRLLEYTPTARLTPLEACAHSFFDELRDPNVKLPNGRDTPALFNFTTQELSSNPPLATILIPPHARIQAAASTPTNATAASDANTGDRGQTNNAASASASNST
Chain of GSK3α (GST-full length GSK3α) (P49840 whole entry): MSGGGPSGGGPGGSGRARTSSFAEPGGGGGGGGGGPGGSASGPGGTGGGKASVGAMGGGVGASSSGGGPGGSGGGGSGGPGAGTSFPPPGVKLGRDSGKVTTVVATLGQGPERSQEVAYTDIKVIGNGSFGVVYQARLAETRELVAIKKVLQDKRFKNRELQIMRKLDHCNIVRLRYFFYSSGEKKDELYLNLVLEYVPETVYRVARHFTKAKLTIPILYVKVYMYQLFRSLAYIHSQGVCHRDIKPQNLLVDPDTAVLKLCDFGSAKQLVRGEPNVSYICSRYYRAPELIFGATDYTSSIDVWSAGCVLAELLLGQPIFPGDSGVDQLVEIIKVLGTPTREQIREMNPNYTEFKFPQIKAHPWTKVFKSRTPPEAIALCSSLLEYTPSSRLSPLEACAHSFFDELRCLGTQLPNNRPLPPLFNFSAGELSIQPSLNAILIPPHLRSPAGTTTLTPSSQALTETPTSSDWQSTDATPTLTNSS

## CC[C@]1(c2cccc(N(C)c3ncccn3)c2)C2=C(CC(C)(C)NC2=O)Nc2n[nH]c(Cl)c21 [Compound 951592]
[1]; [3]
  IC50: > 5 µM
[2]; [4]
  IC50: > 5 µM

## Cn1ccc(S(=O)(=O)N2CCC3(CC2)C2=C(CC(C)(C)NC2=O)Nc2n[nH]cc23)n1 [Compound 943961]
[1]; [5]
  IC50: ≤ 0.1 µM
[1]; [6]
  IC50: ≤ 0.1 µM
[1]; [7]
  IC50: 0.1 to 1 µM
[2]; [8]
  IC50: ≤ 0.1 µM
[2]; [9]
  IC50: ≤ 0.1 µM
[2]; [10]
  IC50: > 5 µM

## CC1(C)CC(=O)C2=C(C1)Nc1n[nH]cc1C21CCN(S(=O)(=O)c2cnn3ccccc23)CC1 [Compound 947615]
[1]; [5]
  IC50: ≤ 0.1 µM
[2]; [8]
  IC50: ≤ 0.1 µM

## CCC1(c2cccc(C(F)(F)F)c2)C2=C(CN(Cc3ccccc3)C2=O)Nc2n[nH]cc21 (stereo not drawn) [Compound 929388]
[1]; [11]
  IC50: 0.1 to 1 µM
[2]; [8]
  IC50: 0.1 to 1 µM
[2]; [12]
  IC50: > 5 µM

## CC[C@]1(c2cccc(C(F)(F)F)c2)C2=C(CCN(c3ccccc3C)C2=O)Nc2n[nH]cc21 [Compound 949129]
[1]; [13]
  IC50: > 5 µM
[2]; [14]
  IC50: > 5 µM

## CCC1(c2ccccc2)C2=C(CCCC2=O)Nc2n[nH]cc21 (stereo not drawn) [Compound 789497]
[1]; [13]
  IC50: 1 to 5 µM
[2]; [14]
  IC50: > 5 µM

## Cn1nc(C(F)(F)F)cc1S(=O)(=O)N1CCC2(CC1)C1=C(CC(C)(C)CC1=O)Nc1n[nH]cc12 [Compound 947606]
[1]; [5]
  IC50: ≤ 0.1 µM
[2]; [8]
  IC50: ≤ 0.1 µM

## CCC1(c2cccc(N3CCOc4ncccc43)c2)C2=C(CC(C)(C)CC2=O)Nc2n[nH]cc21 (stereo not drawn) [Compound 932643]
[1]; [3]
  IC50: 0.1 to 1 µM
[2]; [4]
  IC50: 1 to 5 µM

## CCC1(c2cccc(-c3ccnc(C)c3OC)c2)C2=C(CC(C)(C)CC2=O)Nc2n[nH]cc21 (stereo not drawn) [Compound 945458]
[1]; [5]
  IC50: ≤ 0.1 µM
[2]; [8]
  IC50: ≤ 0.1 µM

## CCC1(c2cccc(N(C)c3ncccn3)c2)C2=C(CC(C)(C)NC2=O)Nc2n[nH]c(C(F)(F)F)c21 (stereo not drawn) [Compound 949181]
[1]; [11]
  IC50: ≤ 0.1 µM
[2]; [12]
  IC50: 0.1 to 1 µM

## CCC1(c2cccc(C(F)(F)F)c2)C2=C(Nc3n[nH]cc31)C(F)C(C)(C)CC2=O (single isomer, unassigned) [Compound 837753, 4-ethyl-8-fluoro-7,7-dimethyl-4-(3-(trifluoromethyl)phenyl)-2,4,6,7,8,9-hexahydro-5H-pyrazolo[3,4-b]quinolin-5-one]
[1]; [13]
  IC50: 0.1 to 1 µM
[1]; [7]
  IC50: > 5 µM
[2]; [14]
  IC50: > 5 µM
[2]; [10]
  IC50: > 5 µM

## CCC1(c2cccc(C(F)(F)F)c2)C2=C(CCN(c3ccn(C)n3)C2=O)Nc2n[nH]cc21 (stereo not drawn) [Compound 949835]
[1]; [3]
  IC50: ≤ 0.1 µM
[2]; [4]
  IC50: 0.1 to 1 µM

## CC1(C)CC(=O)C2=C(C1)Nc1n[nH]cc1C21CCN(S(=O)(=O)c2cnn(CCF)c2)CC1 [Compound 947903]
[1]; [5]
  IC50: ≤ 0.1 µM
[2]; [8]
  IC50: ≤ 0.1 µM

## COc1ccc(S(=O)(=O)N2CCC3(CC2)C2=C(CC(C)(C)CC2=O)Nc2n[nH]cc23)cc1 [Compound 917143]
[1]; [5]
  IC50: ≤ 0.1 µM
[2]; [8]
  IC50: ≤ 0.1 µM

## CCC1(c2cccc(C(F)(F)F)c2)C2=C(CCN(CC(F)(F)F)C2=O)Nc2n[nH]cc21 (stereo not drawn) [Compound 912206]
[1]; [6]
  IC50: ≤ 0.1 µM
[2]; [9]
  IC50: 0.1 to 1 µM

## CC1(C)CC(=O)C2=C(C1)Nc1n[nH]cc1C21CCN(S(=O)(=O)c2cccc(F)c2)CC1 [Compound 901466]
[1]; [5]
  IC50: ≤ 0.1 µM
[2]; [8]
  IC50: ≤ 0.1 µM

## CCC1(c2cccc(-c3ccnnc3)c2)C2=C(CC(C)(C)CC2=O)Nc2n[nH]cc21 (stereo not drawn) [Compound 927342]
[1]; [3]
  IC50: ≤ 0.1 µM
[2]; [4]
  IC50: ≤ 0.1 µM

## CC[C@@]1(c2cccc(-c3ccnn3C3CC3(F)F)c2)C2=C(CC(C)(C)NC2=O)Nc2n[nH]cc21 (stereo partly drawn) [Compound 949518]
[1]; [3]
  IC50: 0.1 to 1 µM
[2]; [4]
  IC50: > 5 µM

## CC[C@]1(c2cccc(Br)c2)C2=C(CC(C)(C)[C@@H](F)C2=O)Nc2n[nH]cc21 [Compound 835313]
[1]; [13]
  IC50: > 5 µM
[2]; [14]
  IC50: > 5 µM

## CCC1(c2cccc(-c3cnn4cccnc34)c2)C2=C(CC(C)(C)NC2=O)Nc2n[nH]cc21 (stereo not drawn) [Compound 949389]
[1]; [3]
  IC50: 1 to 5 µM
[2]; [4]
  IC50: > 5 µM

## CC1(C)CC(=O)C2=C(C1)Nc1n[nH]cc1C21CCN(S(=O)(=O)c2cccnc2)CC1 [Compound 947613]
[1]; [5]
  IC50: ≤ 0.1 µM
[1]; [7]
  IC50: 0.1 to 1 µM
[2]; [8]
  IC50: ≤ 0.1 µM
[2]; [10]
  IC50: 1 to 5 µM

## CC(C)(C)Cc1[nH]nc2c1C(C)(c1cccc(S(=O)(=O)N3CCCC3)c1)C1=C(CC(C)(C)NC1=O)N2 (stereo not drawn) [Compound 108791]
[1]; [11]
  IC50: 1 to 5 µM
[2]; [12]
  IC50: 0.1 to 1 µM

## CC[C@@]1(c2cccc(C(F)(F)F)c2)C2=C(CCN(C(C)(C)C)C2=O)Nc2n[nH]cc21 [Compound 945633]
[1]; [6]
  IC50: > 5 µM
[2]; [9]
  IC50: > 5 µM

## C[C@@H]1CCC[C@]12C1=C(CC(C)(C)CC1=O)Nc1n[nH]cc12 [Compound 874319]
[1]; [3]
  IC50: 1 to 5 µM
[2]; [4]
  IC50: 1 to 5 µM

## CCC1(c2cccc(-c3cn(C)nc3C)c2)C2=C(CC(C)(C)NC2=O)Nc2n[nH]c(C(F)F)c21 (stereo not drawn) [Compound 949170]
[1]; [13]
  IC50: ≤ 0.1 µM
[2]; [14]
  IC50: ≤ 0.1 µM

## CC[C@]1(c2cccc(-c3cc(C)nc4c3cnn4C)c2)C2=C(CC(C)(C)NC2=O)Nc2n[nH]cc21 [Compound 952563]
[1]; [3]
  IC50: 1 to 5 µM
[2]; [4]
  IC50: > 5 µM

## CC1(C)CC(=O)C2=C(C1)Nc1n[nH]cc1C21CC(c2ccccc2)C1 (stereo not drawn) [Compound 917082]
[1]; [5]
  IC50: ≤ 0.1 µM
[2]; [8]
  IC50: ≤ 0.1 µM

## CC(=O)N1C[C@@]2(C[C@]3(CO2)C2=C(CC(C)(C)CC2=O)Nc2n[nH]cc23)[C@@H]1C [Compound 948438]
[1]; [6]
  IC50: ≤ 0.1 µM
[2]; [9]
  IC50: ≤ 0.1 µM

## CC[C@]1(c2cccc(N(C)c3nccc(C)n3)c2)C2=C(CC(C)(C)CC2=O)Nc2n[nH]cc21 [Compound 945329]
[1]; [5]
  IC50: 0.1 to 1 µM
[2]; [8]
  IC50: 1 to 5 µM

## Cc1ccc(C)c(S(=O)(=O)N2CCC3(CC2)C2=C(CC(C)(C)CC2=O)Nc2n[nH]cc23)c1 [Compound 947471]
[1]; [5]
  IC50: ≤ 0.1 µM
[2]; [8]
  IC50: 0.1 to 1 µM

## CCC1(c2cccc(-c3cnn(C)c3C)c2)C2=C(CC(C)(C)CC2=O)Nc2n[nH]c(C)c21 (stereo not drawn) [Compound 883993]
[1]; [3]
  IC50: ≤ 0.1 µM
[2]; [4]
  IC50: ≤ 0.1 µM

## CCC1(c2cccc(S(=O)(=O)C(C)C)c2)C2=C(CC(C)(C)NC2=O)Nc2n[nH]c(C(F)(F)F)c21 (stereo not drawn) [Compound 947800]
[1]; [13]
  IC50: ≤ 0.1 µM
[2]; [14]
  IC50: ≤ 0.1 µM

## CC1(C)CC(=O)C2=C(Nc3n[nH]cc3C23CCN(S(=O)(=O)c2ccccc2C(F)F)CC3)[C@H]1F [Compound 951839]
[1]; [5]
  IC50: ≤ 0.1 µM
[2]; [8]
  IC50: 0.1 to 1 µM

## CCC1(c2cccc(S(=O)(=O)C3CC3)c2)C2=C(CC(C)(C)CC2=O)Nc2n[nH]cc21 (stereo not drawn) [Compound 909204]
[1]; [3]
  IC50: ≤ 0.1 µM
[2]; [4]
  IC50: ≤ 0.1 µM
[2]; [12]
  IC50: 0.1 to 1 µM

## CCC1(c2cccc(-c3ccncc3F)c2)C2=C(CC(C)(C)CC2=O)Nc2n[nH]cc21 (stereo not drawn) [Compound 883986]
[1]; [3]
  IC50: ≤ 0.1 µM
[2]; [4]
  IC50: ≤ 0.1 µM

## CC[C@]1(c2cccc(N3CCCCC3)c2)C2=C(CC(C)(C)NC2=O)Nc2n[nH]c(C(F)(F)F)c21 [Compound 949178]
[1]; [13]
  IC50: 0.1 to 1 µM
[2]; [14]
  IC50: 1 to 5 µM

## CCC1(c2cccc(COC)c2)C2=C(CC(C)(C)CC2=O)Nc2n[nH]cc21 (stereo not drawn) [Compound 810362]
[1]; [13]
  IC50: > 1.67 µM
[2]; [14]
  IC50: > 5 µM

## CC1(C)CC(=O)C2=C(C1)Nc1n[nH]cc1C21CNC1 [Compound 912075]
[1]; [3]
  IC50: 1 to 5 µM
[2]; [4]
  IC50: > 5 µM

## CC[C@]1(c2cc(-c3ccnc(C)c3)ccc2F)C2=C(CC(C)(C)CC2=O)Nc2n[nH]cc21 [Compound 909213]
[1]; [3]
  IC50: > 5 µM
[2]; [4]
  IC50: > 5 µM

## CCC1(c2cccc(-c3ccncc3OC3CC3)c2)C2=C(CC(C)(C)NC2=O)Nc2n[nH]cc21 (stereo not drawn) [Compound 948656]
[1]; [13]
  IC50: > 5 µM
[2]; [14]
  IC50: > 5 µM
